Test results from ChEMBL document CHEMBL5154679, “A target and efficient synthetic strategy for structural and bioactivity optimization of a fungal natural product” (Eur J Med Chem, 2022).
Converted amounts (≈) assume the structure as drawn. Values belong to the compound of their own block, whether it stands above or below them. The source made the active and inactive calls. The rule behind the calls is not given here.

What was measured:
HCT-116 [1] = assay: Antiproliferative activity against human HCT-116 cells assessed as reduction in cell viability incubated for 48 hrs by SRB assay; type: functional, cell-based; conditions: HCT-116, 48 h
HeLa [2] = assay: Antiproliferative activity against human HeLa cells assessed as reduction in cell viability incubated for 48 hrs by SRB assay; type: functional, cell-based
MCF7 [3] = assay: Inhibition of colony formation in human MCF7 cells at 2 ug/ml measured after 48 hrs by crystal violet staining based analysis; type: functional, cell-based; conditions: dose 2.0 µg/ml
HeLa [4] = assay: Inhibition of colony formation in human HeLa cells at 2 ug/ml measured after 48 hrs by crystal violet staining based analysis; type: functional, cell-based; conditions: dose 2.0 µg/ml
MGC-803 = assay: Antiproliferative activity against human MGC-803 cells assessed as reduction in cell viability incubated for 48 hrs by SRB assay; type: functional, cell-based; conditions: MGC-803, 48 h
[5] = Cytotoxicity against human HUVEC cells assessed as reduction in cell viability incubated for 48 hrs by SRB assay; type: toxicity, cell-based
HCT-116 [6] = assay: Inhibition of colony formation in human HCT-116 cells at 2 ug/ml measured after 48 hrs by crystal violet staining based analysis; type: functional, cell-based; conditions: dose 2.0 µg/ml
MDA-MB-231 [7] = assay: Antiproliferative activity against human MDA-MB-231 cells assessed as reduction in cell viability incubated for 48 hrs by SRB assay; type: functional, cell-based; conditions: MDA-MB-231, 48 h
HepG2 = assay: Antiproliferative activity against human HepG2 cells assessed as reduction in cell viability incubated for 48 hrs by SRB assay; type: functional, cell-based; conditions: HepG2, 48 h
[8] = Cytotoxicity against human L02 cells assessed as reduction in cell viability incubated for 48 hrs by SRB assay; type: toxicity, cell-based
MCF7 [9] = assay: Antiproliferative activity against human MCF7 cells assessed as reduction in cell viability incubated for 48 hrs by SRB assay; type: functional, cell-based; conditions: MCF7, 48 h
[10] = Volume of distribution in Sprague-Dawley rat at 1 mg/kg, iv by LC-MS/MS analysis; type: ADME, organism-based; conditions: in vivo
MDA-MB-231 [11] = assay: Anti-metastasis activity against human MDA-MB-231 cells assessed as inhibition of cell migration at 2 ug/ml measured after 24 hrs by scratch wound healing assay; type: functional, cell-based; conditions: dose 2.0 µg/ml
[12] = MRT (0 to infinity) in Sprague-Dawley rat at 1 mg/kg, iv by LC-MS/MS analysis; type: ADME, organism-based; conditions: in vivo
[13] = Clearance in Sprague-Dawley rat at 1 mg/kg, iv by LC-MS/MS analysis; type: ADME, organism-based; conditions: in vivo
[14] = Half life in Sprague-Dawley rat at 1 mg/kg, iv by LC-MS/MS analysis; type: ADME, organism-based; conditions: in vivo
[15] = AUC (0 to infinity) in Sprague-Dawley rat at 1 mg/kg, iv by LC-MS/MS analysis; type: ADME, organism-based; design: time infinity, dose 1 mg/kg, route iv; conditions: in vivo
[16] = Tmax in Sprague-Dawley rat at 1 mg/kg, iv by LC-MS/MS analysis; type: ADME, organism-based; conditions: in vivo
[17] = MRT (0 to t) in Sprague-Dawley rat at 1 mg/kg, iv by LC-MS/MS analysis; type: ADME, organism-based; conditions: in vivo
MDA-MB-231 [18] = assay: Anti-invasive activity against human MDA-MB-231 cells assessed as inhibition of cell invasion at 2 ug/ml measured after 24 hrs by transwell assay; type: functional, cell-based; conditions: dose 2.0 µg/ml
[19] = AUC (0 to t) in Sprague-Dawley rat at 1 mg/kg, iv by LC-MS/MS analysis; type: ADME, organism-based; design: dose 1 mg/kg, route iv; conditions: in vivo
[20] = Cmax in Sprague-Dawley rat at 1 mg/kg, iv by LC-MS/MS analysis; type: ADME, organism-based; design: dose 1 mg/kg, route iv; conditions: in vivo
MDA-MB-231 [21] = assay: Anti-adhesion activity against human MDA-MB-231 cells assessed as inhibition of cell adhesion measured after 6 hrs by microscopic analysis; type: functional, cell-based

IC50 (HCT-116 [1]): 12.5 µg/mL (≈ 25.4 µM)
Compound: COc1cc(=O)oc(/C=C/C=C/C=C/[C@@]2(C)C[C@]3(C)O[C@H](C)[C@](C)(O2)[C@H]3C(=O)c2cccnc2)c1C

IC50 (HCT-116 [1]): 5.9 µg/mL (≈ 13.8 µM)
Compound: CCC[C@@H]1[C@@]2(C)O[C@@](C)(/C=C/C=C/C=C/c3oc(=O)cc(OC)c3C)C[C@]1(C)O[C@@H]2C

IC50 (HCT-116 [1]): 13.5 µg/mL (≈ 27.5 µM)
Compound: COc1cc(=O)oc(/C=C/C=C/C=C/[C@@]2(C)C[C@]3(C)O[C@H](C)[C@](C)(O2)[C@H]3C(=O)c2ccncc2)c1C

IC50 (HCT-116 [1]): 4.98 µg/mL (≈ 10.6 µM)
Compound: COc1cc(=O)oc(/C=C/C=C/C=C/[C@@]2(C)C[C@]3(C)O[C@H](C)[C@](C)(O2)[C@H]3C(=O)C(C)(C)C)c1C

Compound: COc1cc(=O)oc(/C=C/C=C/C=C/C(C)=C/C2(C)O[C@H](C)[C@](C)(O)[C@H]2O)c1C (some centres not stated)
IC50 (HCT-116 [1]): 19.8 µg/mL (≈ 49.1 µM)

IC50 (HeLa [2]): 1.01 µg/mL (≈ 2.03 µM)
IC50 (MGC-803): 3.97 µg/mL (≈ 7.99 µM)
IC50 (HCT-116 [1]): 0.63 µg/mL (≈ 1.27 µM)
IC50 (MDA-MB-231 [7]): 2.87 µg/mL (≈ 5.78 µM)
IC50 (HepG2): 2.42 µg/mL (≈ 4.87 µM)
IC50 (MCF7 [9]): 0.62 µg/mL (≈ 1.25 µM)
Compound: COc1cc(=O)oc(/C=C/C=C/C=C/[C@@]2(C)C[C@]3(C)O[C@H](C)[C@](C)(O2)[C@H]3C(=O)c2cccs2)c1C
inhibition (MCF7 [3]): Active
inhibition (HeLa [4]): Active
IC50 at 48 h [5]: > 50 µg/mL
inhibition (HCT-116 [6]): Active
IC50 at 48 h [8]: > 50 µg/mL

IC50 (HCT-116 [1]): 4.29 µg/mL (≈ 9.12 µM)
Compound: CCC[C@H]1[C@@]2(C)O[C@H](C)[C@]1(C)O[C@@](C)(/C=C/C=C/C=C/c1oc(=O)cc(OC)c1C)[C@@H]2CCC

IC50 (HCT-116 [1]): 6.44 µg/mL (≈ 11.9 µM)
Compound: COc1cc(=O)oc(/C=C/C=C/C=C/[C@@]2(C)C[C@]3(C)O[C@H](C)[C@](C)(O2)[C@H]3C(=O)Cc2ccc(Cl)cc2)c1C

IC50 (HCT-116 [1]): 11.3 µg/mL (≈ 22 µM)
Compound: COc1cc(=O)oc(/C=C/C=C/C=C/[C@@]2(C)C[C@]3(C)O[C@H](C)[C@](C)(O2)[C@H]3C(=O)c2ccc(C#N)cc2)c1C

IC50 (HCT-116 [1]): 11.4 µg/mL (≈ 23.3 µM)
Compound: COc1cc(=O)oc(/C=C/C=C/C=C/[C@@]2(C)C[C@]3(C)O[C@H](C)[C@](C)(O2)[C@H]3C(=O)c2ccccn2)c1C

IC50 (HeLa [2]): 0.85 µg/mL (≈ 1.73 µM)
IC50 (MGC-803): 3.97 µg/mL (≈ 8.09 µM)
IC50 (HCT-116 [1]): 1.52 µg/mL (≈ 3.1 µM)
IC50 (MDA-MB-231 [7]): 4.38 µg/mL (≈ 8.93 µM)
IC50 (HepG2): 3.96 µg/mL (≈ 8.07 µM)
IC50 (MCF7 [9]): 0.92 µg/mL (≈ 1.88 µM)
Compound: COc1cc(=O)oc(/C=C/C=C/C=C/[C@@]2(C)C[C@]3(C)O[C@H](C)[C@](C)(O2)[C@H]3C(=O)c2ccccc2)c1C
IC50 at 48 h [5]: > 50 µg/mL
IC50 at 48 h [8]: 30.1 µg/mL (≈ 61.4 µM)

IC50 (HCT-116 [1]): 7.04 µg/mL (≈ 16.4 µM)
Compound: COc1cc(=O)oc(/C=C/C=C/C=C/[C@@]2(C)C[C@]3(C)O[C@H](C)[C@](C)(O2)[C@H]3C(C)=O)c1C

Compound: COc1cc(=O)oc(/C=C/C=C/C=C/[C@]2(C)O[C@]3(C)[C@@H](O)[C@@](C)(O[C@@H]3C)[C@H]2O)c1C
inhibition (MCF7 [3]): Active
Vd [10]: 2.5 L/kg
inhibition (HeLa [4]): Active
Activity (MDA-MB-231 [11]): Active
MRT inf [12]: 21 min
clearance [13]: 83.2 mL/min/kg
half-life [14]: 21 min
AUC(0-inf) [15]: 206 ng·h/mL
IC50 (HCT-116 [1]): 14.9 µg/mL (≈ 35.6 µM)
inhibition (HCT-116 [6]): Active
Tmax [16]: 6 min
MRT last [17]: 19.8 min
Activity (MDA-MB-231 [18]): Active
AUC(0-t) [19]: 203 ng·h/mL
Cmax [20]: 417 ng/mL

IC50 (HCT-116 [1]): 28.8 µg/mL (≈ 48.4 µM)
Compound: COc1cc(=O)oc(/C=C/C=C/C=C/[C@]2(C)O[C@]3(C)[C@@H](C(=O)c4ccccc4)[C@@](C)(O[C@@H]3C)[C@H]2C(=O)c2ccccc2)c1C

IC50 (HCT-116 [1]): 4.97 µg/mL (≈ 9.55 µM)
Compound: COc1ccc(C(=O)[C@@H]2[C@@]3(C)O[C@@](C)(/C=C/C=C/C=C/c4oc(=O)cc(OC)c4C)C[C@]2(C)O[C@@H]3C)cc1

IC50 (HCT-116 [1]): 4.89 µg/mL (≈ 8.84 µM)
Compound: COc1cc(=O)oc(/C=C/C=C/C=C/[C@@]2(C)C[C@]3(C)O[C@H](C)[C@](C)(O2)[C@H]3C(=O)CCc2ccc(Cl)cc2)c1C

IC50 (HeLa [2]): 1.48 µg/mL (≈ 3.08 µM)
IC50 (MGC-803): 5.79 µg/mL (≈ 12 µM)
IC50 (HCT-116 [1]): 1.4 µg/mL (≈ 2.91 µM)
IC50 (MDA-MB-231 [7]): 4.46 µg/mL (≈ 9.28 µM)
IC50 (HepG2): 4.19 µg/mL (≈ 8.72 µM)
IC50 (MCF7 [9]): 0.74 µg/mL (≈ 1.54 µM)
Compound: COc1cc(=O)oc(/C=C/C=C/C=C/[C@@]2(C)C[C@]3(C)O[C@H](C)[C@](C)(O2)[C@H]3C(=O)c2ccco2)c1C
IC50 at 48 h [5]: > 50 µg/mL
IC50 at 48 h [8]: > 50 µg/mL

IC50 (HCT-116 [1]): 12.5 µg/mL (≈ 21 µM)
Compound: COc1cc(=O)oc(/C=C/C=C/C=C/[C@]2(C)O[C@]3(C)[C@@H](C(=O)c4cccnc4)[C@@](C)(O[C@@H]3C)[C@H]2C(=O)c2cccnc2)c1C

IC50 (HeLa [2]): 0.051 µg/mL (≈ 0.0938 µM)
IC50 (MGC-803): 0.51 µg/mL (≈ 0.938 µM)
IC50 (HCT-116 [1]): 3.36 µg/mL (≈ 6.18 µM)
IC50 (MDA-MB-231 [7]): 0.37 µg/mL (≈ 0.681 µM)
IC50 (HepG2): 0.64 µg/mL (≈ 1.18 µM)
Compound: COc1cccc2c1C(=O)c1c(O)c3c(c(O)c1C2=O)C[C@@](O)(C(=O)CO)C[C@@H]3O[C@H]1C[C@H](N)[C@H](O)[C@H](C)O1 [DOXORUBICIN]
IC50 at 48 h [5]: 23.3 µg/mL (≈ 42.9 µM)
IC50 at 48 h [8]: > 50 µg/mL

IC50 (HCT-116 [1]): 5.77 µg/mL (≈ 12.3 µM)
Compound: COc1cc(=O)oc(/C=C/C=C/C=C/[C@]2(C)O[C@]3(C)[C@@H](C(C)=O)[C@@](C)(O[C@@H]3C)[C@H]2C(C)=O)c1C

IC50 (HeLa [2]): 1.35 µg/mL (≈ 2.57 µM)
Vd [10]: 1.42 L/kg
MRT inf [12]: 521 min
IC50 (MGC-803): 1.54 µg/mL (≈ 2.93 µM)
clearance [13]: 2 mL/min/kg
half-life [14]: 503 min
AUC(0-inf) [15]: 8640 ng·h/mL
IC50 (HCT-116 [1]): 1.23 µg/mL (≈ 2.34 µM)
Tmax [16]: 7.2 min
IC50 (MDA-MB-231 [7]): 4.04 µg/mL (≈ 7.69 µM)
MRT last [17]: 313 min
AUC(0-t) [19]: 7710 ng·h/mL
Cmax [20]: 3040 ng/mL
IC50 (HepG2): 1.96 µg/mL (≈ 3.73 µM)
IC50 (MCF7 [9]): 0.68 µg/mL (≈ 1.3 µM)
Compound: COc1cc(=O)oc(/C=C/C=C/C=C/[C@@]2(C)C[C@]3(C)O[C@H](C)[C@](C)(O2)[C@H]3C(=O)c2ccc(Cl)cc2)c1C
Activity (MDA-MB-231 [21]): Active
inhibition (MCF7 [3]): Active
inhibition (HeLa [4]): Active
Activity (MDA-MB-231 [11]): Active
IC50 at 48 h [5]: > 50 µg/mL
inhibition (HCT-116 [6]): Active
Activity (MDA-MB-231 [18]): Active
IC50 at 48 h [8]: > 50 µg/mL
